Reference: patent US20240398824A1, “Inhibition Of Rip Kinases For Treating Neurodegenerative Disorders” (The Johns Hopkins University, priority 2018, published 2024)

Test system: BV-2 microglia
Assay: Real-time PCR of C1q, IL-6 and TNFα in AβO-activated BV-2 microglia
Format: cell-based
Parameters: key to mRNA levels of C1q / mRNA levels of IL-6 / mRNA levels of TNFα: relative expression normalized to GAPDH by 2^-ΔΔCt; PBS = 1
Procedure: Synthetic Abeta1-42 oligomers were generated as previously described (PMID: 27834631). Hydroxyfluroisopropanol (HFIP)-treated synthethic Abeta1-42 peptides (rPeptide, Bogart, GA, USA) were dissolved in dimethylsulfoxide (DMSO) and further diluted in phosphate-buffered saline (PBS) to obtain a 250 μM stock solution. The stock solution was incubated at 4° C. for at least 24 hours and stored at −80° C. until use. Before use, the solution was centrifuged at 12,000 g for 10 minutes and the supernatant was used as an oligomeric Aβ.
BV-2 microglial cells were cultured in DMEM media. 10^6 of BV-2 microglia in 6 well plate were treated with 2.5 μM of Abeta for 4 hrs. Total RNA from cultured cells was extracted with a RNA isolation kit (Qiagen, Valencia, CA, USA) following manufacturer's instructions. RNA concentration was measured spectrophotometrically using a NanoDrop 2000 (Thermo scientific). Subsequently, 2 μg of total RNA was reverse transcribed to cDNA using the High-Capacity cDNA Reverse Transcription System (Life Technologies, Grand Island, NY, USA). Comparative qPCR was performed using fast SYBR Green Master Mix (Life Technologies) and steponeplus real-time pcr system (Applied Biosystems, Foster City, CA, USA). The expression levels of target genes were normalized to the expression of GAPDH and calculated based on the comparative cycle threshold Ct method^−ΔΔ(2) Ct. (n=3)
To examine the effect of RIPK2 inhibition, 10^6 of BV-2 microglia in 6 well plate were preincubated with DMSO, GSK583 (1 μM, Medchemexpress), OD361 (1 μM, Calbiochem), or Sorafenib (1 μM) for one hour. For mRNA analysis, 5 μM of AβO was treated additional for 4 hours.

[1] = inhibitor 1 μM pretreatment, AβO 5 μM, in words

CC(C)(C)S(=O)(=O)c1ccc2nccc(Nc3n[nH]c4ccc(F)cc34)c2c1 [GSK583, 6-(tert-butylsulfonyl)-N-(5-fluoro-1H-indazol-3-yl) quinolin-4-amine]
mRNA levels of IL-6 (BV-2 microglia preincubated 1 h with inhibitor 1 μM, then AβO 5 μM 4 h, PBS = 1 ± 0.08, Abeta alone 12.53 ± 0.59, ±SD): 4.89 ± 0.23 | mRNA levels of C1q (BV-2 microglia preincubated 1 h with inhibitor 1 μM, then AβO 5 μM 4 h, PBS = 1 ± 0.13, Abeta alone 3.7 ± 0.06, ±SD): 0.87 ± 0.14 | mRNA levels of TNFα (BV-2 microglia preincubated 1 h with inhibitor 1 μM, then AβO 5 μM 4 h, PBS = 1 ± 0.16, Abeta alone 16.19 ± 3.21, ±SD): 3.23 ± 0.27 | microglial activation [1]: blocked microglial activation | release of multiple inflammatory mediators including C1q, IL-6 and TNFα [1]: significantly reduced
